From US12390437B2, “Itaconic acid derivatives and uses thereof intreating an inflammatory disease or a disease associated with an undesirable immune response” (Sitryx Therapeutics Limited, priority 2019, dated 2025)
Where a name gives a salt, the structure may show the parent alone. Read-outs that look alike come from different tables or passages of the source.

Key:
[1] = system: NRF2; test: NRF2 +/-GSH activation assay (DiscoverX PathHunter NRF2 translocation kit, U2OS cells); format: cell-based; conditions: Homo sapiens
Procedure, shortened: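 PathHunter U2OS cells, plated 24 hrs, measured NRF2 nuclear translocation by enzyme-fragment complementation luminescence after 6 hours compound exposure at 37 °C. For +GSH, compound was pre-incubated 30 minutes with GSH (6 mM working stock). EC50 from % activation normalised to dimethyl fumarate high control.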

[2] = Hepatocyte stability assay (human); format: in vitro ADME; conditions: cryopreserved hepatocytes, 10 μM compound, 0.5×10^6 cells/mL, 60 minutes, read-out: T½
From the text: (§1) Defrosted cryo-preserved hepatocytes (viability >70%) are used to determine the metabolic stability of a compound via calculation of intrinsic clearance (Clint; a measure of the removal of a compound from the liver in the absence of blood flow and cell binding). Clearance data are particularly important for in vitro work as they can be used in combination with in vivo data to predict the half-life and oral bioavailability of a drug.
(§2) The metabolic stability in hepatocytes assay involves a time-dependent reaction using both positive and negative controls. The cells must be pre-incubated at 37° C. then spiked with test compound (and positive control); samples taken at pre-determined time intervals are analysed to monitor the change in concentration of the initial drug compound over 60 minutes. A buffer incubation reaction (with no hepatocytes present) acts as a negative control and two cocktail solutions, containing compounds with known high and low clearance values (verapamil/7-hydroxycoumarin and propranolol/diltiazem), act as positive controls. • 1. The assay is run with a cell concentration of 0.5×10^6 cells/mL in Leibovitz buffer. • 2. All compounds and controls are run in duplicate. • 3. Compound concentration is 10 μM. • 4. All compounds and controls are incubated with both cells and buffer to show turnover is due to hepatic metabolism. • 5. All wells on the incubation plate will have 326.7 μL of either cells or buffer added. • 6. Prior to assay, cell and buffer-only incubation plates are preincubated for 10 mins at 37° C. • 7. The assay is initiated by adding compounds, 3.3 μL of 1 mM in 10% DMSO-90% Buffer; final DMSO concentration is 0.1%. • 8. Samples are taken at regular timepoints (0, 5, 10, 20, 40, 60 min) until 60 mins. • 9. Sample volume is 40 μL and it is added to 160 μL of crash solvent (acetonitrile with internal standard) and stored on ice. • 10. At the end of the assay, the crash plates are centrifuged at 3500 rpm for 20 mins at 4° C. • 11. 80 μL of clear supernatant is removed and mixed with 80 μL of deionised water before being analysed by LC-MS/MS.
(§3) Raw LC-MS/MS data are exported to, and analysed in, Microsoft Excel for determination of intrinsic clearance. The percentage remaining of a compound is monitored using the peak area of the initial concentration as 100%. Intrinsic clearance and half-life values are calculated using a graph of the natural log of percentage remaining versus the time of reaction in minutes. Half-life (min) and intrinsic clearance (Clint in μL min^−1 10^−6 cells) values are calculated using the gradient of the graph (the elimination rate constant, k) and Equations 1 and 2.

[3] = system: hepatocytes; test: Hepatocyte stability assay (human); format: in vitro ADME; conditions: 10 μM compound, 0.5×10^6 cells/mL, 60 minutes
From the text: as §1, §2, §3

[4] = Mouse pharmacokinetic study, intravenous dosing; format: in vivo; conditions: 10 mg/kg i.v.; for concentration at 0.05 h / concentration at 0.133 h / concentration at 0.25 h / concentration at 0.5 h / concentration at 1 h / concentration at 2 h / concentration at 4 h / concentration at 6 h / concentration at 8 h: male, C57BL/6, mouse, iv, plasma, read-out: Parent compound concentration following intravenous administration
Procedure, shortened: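 Plasma levels were quantified by LC-MS/MS after dosing male C57BL/6 mice either intravenously (10 mg/kg, sampled to 8 hours) or orally by gavage (100 mg/kg, sampled to 24 hours), with three animals per time point.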

[5] = U2OS, normalised to dimethyl fumarate 'High' control, GSH condition not stated in Table 5, read-out: NRF2 activation Emax
[6] = U2OS PathHunter cells, 6 hours, GSH condition not stated in Table 5, read-out: NRF2 activation EC50
[7] = U2OS, Table 10, assay of Biological Example 5 (NRF2), read-out: EC50
[8] = U2OS, Table 10, assay of Biological Example 5 (NRF2), read-out: Emax

SMILES | Emax [1, 5] [%] | EC50 [1, 6] [µM] | half-life at 10 μM [2] [h] | CIint (μL min^−1 10^−6 cells) [3] [μL min^−1 10^−6 cells] | concentration at 0.05 h [4] [ng/mL] | concentration at 0.133 h [4] [ng/mL] | concentration at 0.25 h [4] [ng/mL] | concentration at 0.5 h [4] [ng/mL] | concentration at 1 h [4] [ng/mL] | concentration at 2 h [4] [ng/mL] | concentration at 4 h [4] [ng/mL] | concentration at 6 h [4] [ng/mL] | concentration at 8 h [4] [ng/mL] | EC50 [1, 7] [µM] | Emax [1, 8] [%] | Quantifiability in plasma following intravenous dosing ([4]; mouse)
C=C(CC(=O)OCCCCCCCC)C(=O)OCCC#N [Example 1, 1-(2-cyanoethyl) 4-octyl 2-methylenesuccinate] | 134 | 8.8 | – | – | – | – | – | – | – | – | – | – | – | – | – | –
C=C(CC(=O)OCCCCCCCC)C(=O)OCCS(C)(=O)=O [Example 2, 1-(2-(methylsulfonyl)ethyl) 4-octyl 2-methylenesuccinate] | 268 | 5.1 | – | – | – | – | – | – | – | – | – | – | – | – | – | –
C=C(CC(=O)OCCCCCCCC)C(=O)OC1COC1 [Example 4, 4-octyl 1-(oxetan-3-yl) 2-methylenesuccinate] | 181 | 8.3 | – | – | – | – | – | – | – | – | – | – | – | – | – | –
C=C(CC(=O)OCCCCCCCC)C(=O)OCC(=O)O [Example 49, 2-((2-methylene-4-(octyloxy)-4-oxobutanoyl)oxy)acetic acid] | 232 | 15.8 | 0.217 | 109 | – | – | – | – | – | – | – | – | – | – | – | –
C=C(CC(=O)OCCCCCCCC)C(=O)OCCC(=O)O [Example 80, 3-((2-methylene-4-(octyloxy)-4-oxobutanoyl)oxy)propanoic Acid] | 229 | 21.5 | 0.1 | 243 | – | – | – | – | – | – | – | – | – | – | – | –
C=C(CC(=O)OC1CCCCCCC1)C(=O)OCCC(=O)O [Example 82, 3-((4-(cyclooctyloxy)-2-methylene-4-oxobutanoyl)oxy)propanoic acid] | 164 | 26.5 | 1.52 | 15 | 17600 | 8350 | 2780 | 752 | 69 | 2.2 | 1.4 | 1.6 | < 0.8 | – | – | –
C=C(CC(=O)O[C@@H](C)CCCCCC)C(=O)OCCC(=O)O [Example 84, (S)-3-((2-methylene-4-(octan-2-yloxy)-4-oxobutanoyl)oxy)propanoic acid] | 185 | 6.3 | 0.267 | 86 | 5580 | – | 1030 | 217 | 34 | 6.5 | < 2 | < 2 | – | – | – | –
C=C(CC(=O)OCCCOc1ccccc1)C(=O)OCCC(=O)O [Example 86, 3-((2-methylene-4-oxo-4-(3-phenoxypropoxy)butanoyl)oxy)propanoic acid] | 91 | 21 | 0.517 | 44 | – | – | – | – | – | – | – | – | – | – | – | –
C=C(CC(=O)OC1CCCCC1)C(=O)OCCC(=O)O [Example 87, 3-((4-(cyclohexyloxy)-2-methylene-4-oxobutanoyl)oxy)propanoic acid] | 113 | 34.2 | 2.27 | 11 | – | – | – | – | – | – | – | – | – | – | – | –
C=C(CC(=O)OC1CCCCC1)C(=O)OCC(=O)O [Example 91, 2-((4-(cyclohexyloxy)-2-methylene-4-oxobutanoyl)oxy)acetic acid] | 73 | 10.1 | 5.87 | 4 | – | – | – | – | – | – | – | – | – | – | – | –
C=C(CC(=O)OC1C(C)(C)CC1(C)C)C(=O)OCC(=O)O [Example 169, 2-((2-methylene-4-oxo-4-(2,2,4,4-tetramethylcyclobutoxy)butanoyl)oxy) acetic acid] | – | – | 4.47 | 5 | 15600 | 6430 | 2800 | 516 | 8.6 | 2.5 | 1.3 | < 0.8 | < 0.8 | – | – | –
C=C(CC(=O)O[C@@H](CC)CCCCC)C(=O)OCC(=O)O [Example 170, (S)-2-(2-methylene-4-(octan-3-yloxy)-4-oxobutanoyloxy)acetic acid] | – | – | 2 | 12 | 37200 | 21900 | 8930 | 1660 | 476 | 66 | 12 | < 4 | < 4 | – | – | –
C=C(CC(=O)O[C@H](CC)CCCCC)C(=O)OCC(=O)O [Example 178, (R)-2-(2-methylene-4-(octan-3-yloxy)-4-oxobutanoyloxy)acetic acid] | 188 | 14.3 | – | – | 33400 | 15500 | 5680 | 2850 | 594 | 61 | 8.2 | < 4 | < 4 | – | – | –
C=C(CC(=O)OC(C)(C)CCCCC)C(=O)OCC(=O)O [Example 193, 2-((2-methylene-4-((2-methylheptan-2-yl)oxy)-4-oxobutanoyl)oxy)acetic acid] | – | – | 1.82 | 16 | 28800 | 10700 | 4040 | 1450 | 134 | 16 | 4.1 | < 4 | < 4 | – | – | –
COC(=O)/C=C/C(=O)OC [dimethyl fumarate, reference compound] | 102 | 5.6 | – | – | – | – | – | – | – | – | – | – | – | 5.6 | 102 | –
C=C(CC(=O)OC)C(=O)OC [dimethyl itaconate, reference compound] | 137 | 21.4 | – | – | 874 | < 24 | < 24 | < 24 | < 24 | < 24 | < 24 | < 24 | < 24 | 21.4 | 137 | only quantifiable at one timepoint
